Data set [1] is described as follows: Selectivity index, ratio of CC50 for African green monkey Vero cells to EC50 for Zika virus GZ01/2016 infected in African green monkey Vero cells. In kind it is toxicity. The note with it: read-out: Ratio CC50/EC50.
Data set [2] can be described thus: Antiproliferative against African green monkey Vero cells. It is filed as toxicity, cell-based. The following applies: chlorocebus sabaeus.
Data set [3] is described as follows: Cytotoxicity against African green monkey Vero cells by MTT assay. The note with it: chlorocebus sabaeus. It is filed as toxicity, cell-based. Background: Tetrazolium assays rely on reduction of a dye to a coloured formazan, in cell work by metabolically active cells.
Data set [4] is described as follows: Selectivity index, ratio of CC50 for African green monkey Vero cells to EC50 for Zaire ebolavirus infected in African green monkey Vero cells. It is filed as toxicity. The following applies: read-out: Ratio CC50/EC50.
Another data set concerns Influenza A virus. Kind of data set: Antiviral activity against Influenza A virus A/California/7/2009(H1N1) strain infected in A549 cells assessed as reduction in viral infection incubated for 48 hrs by qPCR analysis. It is filed as functional, organism-based. The following applies: A549, 48 h. (Real-time PCR tracks product formation cycle by cycle.)
Data set [5] is described as follows: Antiproliferative against African green monkey Vero cells incubated for 40 hrs by Celltiter assay. The note with it: chlorocebus sabaeus. It is filed as toxicity, cell-based.
Data set [6] is described as follows: Selectivity index, ratio of CC50 for African green monkey Vero cells to EC50 for SARS-COV-2. The note with it: read-out: Ratio CC50/EC50. It is filed as toxicity.
A further data set deals with Zika virus. The data set can be described thus: Antiviral activity against Zika virus GZ01/2016 infected in African green monkey Vero cells assessed as reduction in virus induced cytopathic effect preincubated with cells for 12 hrs followed by viral infection and measured after 48 hrs by qRT-PCR analysis. The note with it: GZ01/2016, Vero. It is filed as functional, organism-based. (Damage to the host cells serves as the signal in cytopathic effect assays.)

For a further data set, the system named is dengue virus type 2. Kind of data set: Antiviral activity against Dengue virus 2 infected in African green monkey Vero cells assessed as reduction in virus induced cytopathic effect preincubated with cells for 12 hrs followed by viral infection and measured after 48 hrs by qRT-PCR analysis. It is filed as functional, organism-based.
The nature of data set [7]: Cytotoxicity against African green monkey Vero cells by Celltiter blue assay. In kind it is toxicity, cell-based. The note with it: chlorocebus sabaeus.
In another data set the test system is A549. Kind of data set: Cytotoxicity against human A549 cells by MTT assay. It is filed as functional.
A short description of data set [8]: Selectivity ratio of CC50 for human A549 cells to EC50 for Influenza A virus A/California/7/2009(H1N1) strain infected in A549 cells. In kind it is toxicity, cell-based. The note with it: read-out: Ratio CC50/EC50.
The nature of data set [9]: Selectivity index, ratio of CC50 for African green monkey Vero cells to EC50 for Dengue virus 2 infected in African green monkey Vero cells. In kind it is toxicity. The note with it: read-out: Ratio CC50/EC50.
A further data set has as its system Zaire ebolavirus. Kind of data set: Antiviral activity against Zaire ebolavirus infected in African green monkey Vero cells assessed as reduction in virus induced cytopathic effect preincubated with cells for 1 hr followed by viral infection and measured after 48 hrs. In kind it is functional, organism-based.
A further data set relates to SARS-CoV-2. The data set can be described thus: Antiviral activity against SARS-COV-2 infected in African green monkey Vero cells assessed as reduction in virus induced cytopathic effect preincubated with cells for 15 mins followed by viral infection and measured after 2 days by RT-PCR analysis. In kind it is functional, organism-based. The note with it: Severe acute respiratory syndrome coronavirus 2, Vero.

A value given as a limit tells only on which side of the number the result lay.

One may read the CC50 as the concentration giving 50% cytotoxicity. Broadly, the EC50 is the concentration needed to bring the measured effect to its halfway point. For orientation: EC90 means the point of the concentration-response curve where the effect stands at 90%.

In the case of `CC[C@H]1OC(=O)[C@H](C)[C@@H](O[C@H]2C[C@@](C)(OC)[C@@H](O)[C@H](C)O2)[C@H](C)[C@@H](O[C@@H]2O[C@H](C)C[C@H](N(C)C)[C@H]2O)[C@](C)(O)C[C@@H](C)CN(C)[C@H](C)[C@@H](O)[C@]1(C)O` [AZITHROMYCIN], the selectivity ratio in data set [1] was 123; in [4], > 25; in data set [6], > 19; in data set [8], > 8.8; in [9] it was 218. The 50% cytotoxic concentration (CC50) is 810 µM in data set [2], > 130 µM in data set [3], > 40 µM in data set [7] and > 600 µM with A549. Also, the EC50 is 68 µM in the data set with Influenza A virus; 6.59 µM in the data set with Zika virus; 3.71 µM in the data set with dengue virus type 2; 5.1 µM with Zaire ebolavirus; 2.12 µM with SARS-CoV-2. Besides, in data set [5], the 50% cytotoxic concentration (CC50) at 40 h amounted to 810 µM. In addition, the concentration for an effect of 90% (EC90) in the data set on SARS-CoV-2 (48.25 h, time 2895 min) worked out at 8.65 µM.
